Results on three compounds are retold here after US10624345B2, “Protoporphyrinogen oxidase inhibitor mixtures” (Valent U.S.A. LLC, priority 2017, dated 2020).

One data set deals with soybeans. The data set can be described thus: Field trial, crop phytotoxicity, soybeans. In kind it is in vivo. The settings on record: compared with the other adjuvant; in words. As for the experimental part: (§1) A field trial was conducted in Mississippi, United States, to evaluate the impact of the C16 to C18 fatty acid methyl esters adjuvant system on the effectiveness of several herbicides. Rice, soybeans, cotton, peanut and corn seeds were planted and irrigated on two days after planting. Seven days after planting there was good stand of all of the crops, except only 4 of the 9 rows of rice were visible. The weeds were about 3 centimeters tall at this time. The treatments in Table 2 below were applied 13 days after planting. The rate of each treatment is below in Table 2 and all of the adjuvant systems were mixed with the herbicides at a rate of 1% v/v.
(§2) At the time of treatment: rice was at the first true leaf growth stage and from about 5 to 7 inches tall; soybeans were at the V2 growth stage and from about 5 to 7 inches tall; cotton was at the V2 growth stage and from about 5 to 7 inches tall; peanut was at the V5 growth stage and from about 3 to 5 inches tall; and corn was at the V3 growth stage and from about 9 to 12 inches tall.
(§3) The adjuvant system described in Example 1 above was used as the source of the C16 to C18 fatty acid methyl esters adjuvant system used in this study.
(§4) In this study, phytotoxicity of the crops was also evaluated.

In another data set the test system is Yellow Nutsedge. Put plainly: Field trial, post-emergence weed control, Yellow Nutsedge. The settings on record: compared with the other adjuvant; in words. In kind it is in vivo, Cyperus esculentus. The procedure:
as §1
(§5) At the time of treatment: Hemp Sesbania was at the V4 growth stage and from about 3 to 5 about inches tall; Ivyleaf Morningglory was at the V3 growth stage and from about 2 to about 4 inches tall; Common Barnyardgrass was at the V5 growth stage and from about 2.5 to about 6 inches tall; Palmer Amaranth was at the vegetative growth stage and from about 2 to about 7 inches tall; Yellow Nutsedge was at the V8 growth stage and from about 3 to about 6 inches tall; and Broadleaf Signalgrass was at the second true leaf growth stage and from about 2 to about 4 inches tall.
(§6) The weeds were evaluated fourteen days after treatment. […]

In a further data set the test system is Common Barnyardgrass. Put plainly: Field trial, post-emergence weed control, Common Barnyardgrass. The settings on record: compared with the other adjuvant; in words. The format is in vivo, Echinochloa crus-galli. As for the experimental part: as §1, §5, §6
In another data set the test system is weeds. The data set can be described thus: Field trial, impact of the adjuvant system on herbicide effectiveness, weeds overall. In kind it is in vivo. The settings on record: compared with the other adjuvant; no weed named; in words. The procedure: as §1, §5
The weeds were evaluated fourteen days after treatment.
as §3

In another data set the test system is Palmer Amaranth. The data set can be described thus: Field trial, post-emergence weed control, Palmer Amaranth. The format is in vivo. The settings on record: compared with the other adjuvant; in words. The procedure: as §1, §5, §6
The next data set deals with cotton. The data set can be described thus: Field trial, crop phytotoxicity, cotton. The format is in vivo. The settings on record: compared with the other adjuvant; in words. As for the experimental part:
as §1, §2, §3, §4

In another data set the test system is corn. The data set can be described thus: Field trial, crop phytotoxicity, corn. The format is in vivo. The settings on record: compared with the other adjuvant; in words. As for the experimental part: as §1, §2, §3, §4
The next data set concerns rice. The data set can be described thus: Field trial, crop phytotoxicity, rice. The format is in vivo. The settings on record: compared with the other adjuvant; in words. As for the experimental part: as §1, §2, §3, §4
A further data set relates to Broadleaf Signalgrass. Put plainly: Field trial, post-emergence weed control, Broadleaf Signalgrass. The settings on record: compared with the other adjuvant; in words. In kind it is in vivo, Brachiaria platyhylla. As for the experimental part: as §1, §5, §6
The subject of another data set is Hemp Sesbania. Put plainly: Field trial, post-emergence weed control, Hemp Sesbania. In kind it is in vivo. The settings on record: compared with the other adjuvant; in words. The procedure: as §1, §5, §6
For a further data set, the system named is peanut. Put plainly: Field trial, crop phytotoxicity, peanut. In kind it is in vivo. The settings on record: compared with the other adjuvant; in words. The procedure:
as §1, §2, §3, §4

A further data set deals with Ivyleaf Morningglory. The data set can be described thus: Field trial, post-emergence weed control, Ivyleaf Morningglory. In kind it is in vivo. The settings on record: compared with the other adjuvant; in words. As for the experimental part:
as §1, §5, §6

“Also recorded” adds a separate entry of the source.

As to `CCOC(=O)COc1ncccc1Oc1cc(-n2c(=O)cc(C(F)(F)F)n(C)c2=O)c(F)cc1Cl` [ethyl [3-[2-chloro-4-fluoro-5-(1-methyl-6-trifluoromethyl-2,4-dioxo-1,2,3,4-tetrahydropyrimidin-3-yl)phenoxy]-2-pyridyloxy]acetate], the “Effect of C16 to C18 fatty acid methyl esters adjuvant system on phytotoxicity on soybeans” value in the data set with soybeans is reported as “did not significantly increase phytotoxicity”. In the data set on Yellow Nutsedge, the “Effect of C16 to C18 fatty acid methyl esters adjuvant system on effectiveness on Yellow Nutsedge” value is “did not increase the effectiveness”. Moreover, the “Effect of C16 to C18 fatty acid methyl esters adjuvant system on effectiveness on Common Barnyardgrass” value with Common Barnyardgrass was “increases the effectiveness”. Also, in the data set on weeds, the “Effect of C16 to C18 fatty acid methyl esters adjuvant system on effectiveness/efficacy of the herbicide (weeds overall)” value is “improved the efficacy”. In the data set on Palmer Amaranth, the “Effect of C16 to C18 fatty acid methyl esters adjuvant system on effectiveness on Palmer Amaranth” value was “did not increase the effectiveness”. Besides, in the data set on cotton, the “Effect of C16 to C18 fatty acid methyl esters adjuvant system on phytotoxicity on cotton” value is given as “did not significantly increase phytotoxicity”. The “Effect of C16 to C18 fatty acid methyl esters adjuvant system on phytotoxicity on corn” value in the data set on corn was “did not significantly increase phytotoxicity”. Further, the “Effect of C16 to C18 fatty acid methyl esters adjuvant system on phytotoxicity on rice” value with rice was “increase the phytotoxicity”. Further, the “Effect of C16 to C18 fatty acid methyl esters adjuvant system on effectiveness on Broadleaf Signalgrass” value with Broadleaf Signalgrass is “increases the effectiveness”. Moreover, in the data set on Hemp Sesbania, the “Effect of C16 to C18 fatty acid methyl esters adjuvant system on effectiveness on Hemp Sesbania” value is given as “did not increase the effectiveness”. In addition, the “Effect of C16 to C18 fatty acid methyl esters adjuvant system on phytotoxicity on peanut” value in the data set on peanut is “increase the phytotoxicity”. Further, the “Effect of C16 to C18 fatty acid methyl esters adjuvant system on effectiveness on Ivyleaf Morningglory” value with Ivyleaf Morningglory is on record as “did not increase the effectiveness”.
With `C#CCN1C(=O)COc2cc(F)c(N3C(=O)C4=C(CCCC4)C3=O)cc21` [flumioxazin], the “Effect of C16 to C18 fatty acid methyl esters adjuvant system on effectiveness/efficacy of the herbicide (weeds overall)” value in the data set on weeds is given as “did not improve the efficacy; also recorded: failed to increase the effectiveness”.
Regarding `CCOC(=O)C(C)OC(=O)c1cc(Oc2ccc(C(F)(F)F)cc2Cl)ccc1[N+](=O)[O-]` (centres unmarked) [lactofen], the “Effect of C16 to C18 fatty acid methyl esters adjuvant system on effectiveness/efficacy of the herbicide (weeds overall)” value in the data set on weeds was “did not improve the efficacy; also recorded: failed to increase the effectiveness”.
